{"source": "patent US6849596B1", "about": "“Regulatory/unfolding peptides of ezrin” (priority 1999, dated 2005)", "key": {"[1]": {"tested_on": "antibody forming cells against sheep erythocytes (SRBC)", "assay": "Antibody forming cells against sheep erythocytes (SRBC) in mice, plaque count", "format": "in vivo", "conditions": "four days after SRBC, thirty mice per data point", "experimental": "Activity of Hepreceptor Peptides Enhancing the Antibody-Dependent Cytotoxic Response in […] to Sheep Red Blood Cells (SRBC) in Mice\nThe influence of Hepreceptor peptides on the activation of antibody forming cells against sheep erythocytes (SRBC) in Mice (CBA-C57B1 Fi hybrids. 2 months old, weight 18-22 grams) was determined. Mice were first injected intraperitoneally using either 0.5 ml sterile saline as a control or Hepreceptor peptides in the same volume of saline. 30 minutes after the injection of Hepreceptor peptides, a cell suspension containing 5 million SRBC was administered intraperitoneally to each mouse. Four days after the immunisation, the mice were killed by cervical dislocation and the spleens were obtained aseptically. Each spleen was homogenised in 2 ml of Medium 199, then 100 microliters of this suspension was put into 1 ml of prepared agarose in Medium 199 (stored in water bath at 48° C.), SRBC suspension was added, resulting in a final concentration of 1% agarose. The Im1 of agarose-cell mixture was agitated then transferred to petri dish to set. When the agarose became solid, the petri dish was incubated for 1 hour at 37° C. then 0.5 ml of 1-in-20 diluted guinea pig serum in Medium 199 was added on top of agarose gel as a source of complement. The incubation was continued for another 1 hour. The dishes were then visualised using an 8×binocular microscope and the number of plaques counted (each plaque equivalent to one antibody secreting mouse spleen cell). The results were expressed both as the number of antibody secreting cells per one million nucleated spleen cells and the number of antibody secreting cells per whole spleen.\nAveraged data (from thirty mice per data point) of the number of antibody forming cells per one million nucleated spleen cells. The data was re-based relative to 100 for each control group."}, "[2]": {"tested_on": "human Peripheral Blood Mononuclear Cells", "assay": "In vitro activation of human PBMC, tritiated thymidine incorporation", "format": "cell-based", "conditions": "for incorporation of 3H thymidine: three days, Control 370"}, "[3]": {"tested_on": "IgG serum antibody response to Ovalbumin", "assay": "Adjuvant activity: IgG serum antibody response to Ovalbumin in mice", "format": "in vivo", "conditions": "for IgG response recorded as OD: 50 micrograms Ovalbumin, two weeks, sera 1 to 100; for IgG response recorded as OD then rebased relative to 100 for each control: control = 100", "experimental": "Adjuvant Activity of Hepreceptor Peptides Enhancing the IgG Serum Antibody Response to Ovalbumin in Mice\nThe IgG response in mice two weeks after an injection of 50 micrograms of Ovalbumin plus various concentrations of different hepreceptor peptides was determined. IgG response was measured by Optical Density (OD) of a 1 to 100 dilution of mouse sera in the presence of Ovalbumin.\nIgG response recorded as OD\nIgG response recorded as OD then data rebased relative to 100 for each control"}, "activated macrophages": {"tested_on": "activated macrophages", "assay": "Induction of activated macrophages in mice (peritoneal exsudate)", "format": "in vivo", "experimental": "Groups of three mice (CDAxC57B1)F1 weighing 22-24 g were injected abdominally with each peptide solution of 1.0 microgram of peptide dissolved in 0.5 ml of physiological saline. After 24 hours the animals were killed using neck vertebrae dislocation and 5 ml of Hanks solution was injected into the abdomen. The abdomen was massaged for 30 seconds and then the peritoneal liquid was collected. The collected liquid was filtered using a nylon filter into siliconised tubes containing 1.5 mg/ml EDTA. The number of nucleus containing cells in […] of filtrate were then assessed under microscopic examination using a Nihon hemocytometer. The cells were pelleted by centrifugation for 5 minutes at 800 g, the pellet was resuspended in fetal calf serum, the cell suspension was dropped on to a glass microscope slide and dried then fixed in methanol and stained with Romanovski's colouring agent. Morphological analysis of the cells of the peritoneal exsudate were performed using an Opton optical microscope at 1600 magnifications. The number of lymphocytes, resting macrophages, activated macrophages, granulocytes and other cell types were assessed."}, "[4]": {"tested_on": "transplanted sarcoma of the uterus SM-322", "assay": "Transplanted mouse sarcoma SM-322 model", "format": "in vivo, CBA mice", "conditions": "control 12-16"}, "[5]": {"conditions": "IP injection 1 microgram per mouse"}, "[6]": {"conditions": "IP injection 10 micrograms per mouse"}, "[7]": {"conditions": "IP injection 0.01 micrograms per mouse"}, "[8]": {"conditions": "IP injection 0.1 micrograms per mouse"}}, "note": "Entries after “also recorded” stand apart in the source; their conditions may differ."}
{"sequence": "KKRRETVERE (Hepreceptor peptide) [Rupe312]", "values": [{"measurement": "number of antibody forming cells per one million nucleated spleen cells, re-based relative to 100 for control", "setting": "[1]; [5]", "value": 317}, {"measurement": "number of antibody forming cells per one million nucleated spleen cells, re-based relative to 100 for control", "setting": "[1]; [6]", "value": 267}, {"measurement": "activity relative to HEP1", "setting": "[2]; PBMC activation, thymidine incorporation", "value": "significantly more active than HEP1; also recorded: ten fold higher activity than HEP1"}, {"measurement": "concentration of peak activity", "setting": "[2]; PBMC proliferation", "value": "around 3 nanograms/ml"}, {"measurement": "incorporation of 3H thymidine", "setting": "[2]; Peptide 0.0001 micro g/ml", "value": "563 radioactive counts per minute"}, {"measurement": "incorporation of 3H thymidine", "setting": "[2]; Peptide 0.0003 micro g/ml", "value": "742 radioactive counts per minute"}, {"measurement": "incorporation of 3H thymidine", "setting": "[2]; Peptide 0.001 micro g/ml", "value": "976 radioactive counts per minute"}, {"measurement": "incorporation of 3H thymidine", "setting": "[2]; Peptide 0.003 micro g/ml", "value": "3222 radioactive counts per minute"}, {"measurement": "incorporation of 3H thymidine", "setting": "[2]; Peptide 0.01 micro g/ml", "value": "656 radioactive counts per minute"}, {"measurement": "incorporation of 3H thymidine", "setting": "[2]; Peptide 0.03 micro g/ml", "value": "539 radioactive counts per minute"}, {"measurement": "incorporation of 3H thymidine", "setting": "[2]; Peptide 0.1 micro g/ml", "value": "533 radioactive counts per minute"}, {"measurement": "incorporation of 3H thymidine", "setting": "[2]; Peptide 0.3 micro g/ml", "value": "611 radioactive counts per minute"}, {"measurement": "incorporation of 3H thymidine", "setting": "[2]; Peptide 1 micro g/ml", "value": "472 radioactive counts per minute"}, {"measurement": "incorporation of 3H thymidine", "setting": "[2]; Peptide 3 micro g/ml", "value": "455 radioactive counts per minute"}, {"measurement": "incorporation of 3H thymidine", "setting": "[2]; Peptide 10 micro g/ml", "value": "405 radioactive counts per minute"}, {"measurement": "IgG response recorded as OD", "setting": "[3]; [7]", "value": 0.68, "unit": "OD"}, {"measurement": "IgG response recorded as OD then rebased relative to 100 for each control", "setting": "[3]; [7]", "value": 99}, {"measurement": "IgG response recorded as OD", "setting": "[3]; [8]", "value": 0.88, "unit": "OD"}, {"measurement": "IgG response recorded as OD then rebased relative to 100 for each control", "setting": "[3]; [8]", "value": 128}, {"measurement": "IgG response recorded as OD", "setting": "[3]; [5]", "value": 0.55, "unit": "OD"}, {"measurement": "IgG response recorded as OD then rebased relative to 100 for each control", "setting": "[3]; [5]", "value": 80}, {"measurement": "IgG response recorded as OD", "setting": "[3]; [6]", "value": 0.44, "unit": "OD"}, {"measurement": "IgG response recorded as OD then rebased relative to 100 for each control", "setting": "[3]; [6]", "value": 64}, {"measurement": "activity in increasing activated macrophages relative to HEP1", "setting": "activated macrophages; 1.0 microgram peptide/mouse", "value": "significantly more active than HEP1"}, {"measurement": "Activated macrophages as a percent of total number of cells", "setting": "activated macrophages; 1.0 microgram peptide/mouse injected abdominally, after 24 hours, saline 1.9", "value": 13.9, "unit": "%"}, {"measurement": "Days of life expectancy", "setting": "[4]; 0.1 Microg/mouse IP twice weekly", "value": "12 to 22", "unit": "days"}, {"measurement": "Days of life expectancy", "setting": "[4]; 1 Microg/mouse IP twice weekly", "value": "12 to 19", "unit": "days"}, {"measurement": "Days of life expectancy", "setting": "[4]; 10 Microg/mouse IP twice weekly", "value": "12 to 27", "unit": "days"}]}
